In US9408926B2, “KDR and VEGF/KDR binding peptides and their use in diagnosis and therapy” (Bracco Suisse S.A., priority 2002, dated 2016):

Assays:
[1] = system: VEGF-induced peritoneal vascular permeability; assay: Blocking VEGF-enhanced peritoneal vascular permeability (Evan's Blue); type: in vivo, mice; settings: 20 μM with […] VEGF165 i.p.
Procedure: Male balb/c nu/nu mice were injected intraperitoneally with 2 mL vehicle (1% bovine serum albumin in 95% saline/5% DMSO), vehicle+1.2 nM VEGF165, or vehicle+1.2 nM VEGF165+20 μM D10. Immediately after, the mice were injected with Evan's Blue Dye (0.5% in saline, 4 mL/kg) i.v. via their tail veins. After 60 min, mice were sacrificed by CO2 asphyxiation and the peritoneal fluid was retrieved. After centrifuging the samples briefly, the absorbance at 590 nm was measured for each.

KDR [2] = biological target: T1, KDR (Homo sapiens, UniProt P35968); assay: SPR analysis of dimer affinity for KDR; type: binding
Target sequence in this assay (P35968 20-1356, species assumed): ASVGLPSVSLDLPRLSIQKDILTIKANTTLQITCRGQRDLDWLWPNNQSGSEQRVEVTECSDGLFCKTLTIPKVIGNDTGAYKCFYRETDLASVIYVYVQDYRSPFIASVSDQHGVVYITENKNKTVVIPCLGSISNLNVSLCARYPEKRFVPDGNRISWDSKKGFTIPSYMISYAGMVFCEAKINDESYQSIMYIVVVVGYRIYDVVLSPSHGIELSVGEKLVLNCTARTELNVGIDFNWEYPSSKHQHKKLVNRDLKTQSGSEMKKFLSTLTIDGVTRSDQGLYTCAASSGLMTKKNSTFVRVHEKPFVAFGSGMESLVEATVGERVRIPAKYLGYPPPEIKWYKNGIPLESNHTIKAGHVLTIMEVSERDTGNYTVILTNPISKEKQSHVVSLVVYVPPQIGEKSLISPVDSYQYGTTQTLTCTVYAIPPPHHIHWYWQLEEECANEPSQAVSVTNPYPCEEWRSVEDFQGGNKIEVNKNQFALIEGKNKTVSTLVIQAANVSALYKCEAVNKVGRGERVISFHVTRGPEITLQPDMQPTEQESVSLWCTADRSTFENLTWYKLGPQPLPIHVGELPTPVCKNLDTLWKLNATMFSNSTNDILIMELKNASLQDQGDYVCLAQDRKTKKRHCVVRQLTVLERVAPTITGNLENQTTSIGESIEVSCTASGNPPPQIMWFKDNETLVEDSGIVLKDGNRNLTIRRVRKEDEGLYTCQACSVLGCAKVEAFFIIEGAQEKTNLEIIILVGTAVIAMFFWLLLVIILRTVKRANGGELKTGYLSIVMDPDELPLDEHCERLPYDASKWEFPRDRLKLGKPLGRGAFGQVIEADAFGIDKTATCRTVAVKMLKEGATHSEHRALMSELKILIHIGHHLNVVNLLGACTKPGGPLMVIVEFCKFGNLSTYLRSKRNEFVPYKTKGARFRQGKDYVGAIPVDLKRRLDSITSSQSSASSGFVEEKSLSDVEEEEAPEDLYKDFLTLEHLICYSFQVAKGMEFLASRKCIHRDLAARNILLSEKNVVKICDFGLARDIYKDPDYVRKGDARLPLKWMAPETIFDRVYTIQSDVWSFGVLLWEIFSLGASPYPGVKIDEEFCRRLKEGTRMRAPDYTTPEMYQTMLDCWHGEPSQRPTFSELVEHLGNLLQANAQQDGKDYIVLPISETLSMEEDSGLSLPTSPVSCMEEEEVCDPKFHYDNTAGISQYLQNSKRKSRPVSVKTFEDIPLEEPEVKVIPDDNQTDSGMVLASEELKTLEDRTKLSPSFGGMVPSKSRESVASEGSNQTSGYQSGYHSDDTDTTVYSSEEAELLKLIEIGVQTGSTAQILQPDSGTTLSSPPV

KDR [3] = biological target: T1, KDR; assay: Inhibition of VEGF-induced KDR receptor activation (phosphorylation) in HUVECs; type: cell-based; parameters: host or cells: HUVEC
Target sequence in this assay (P35968 20-1356): as the sequence (P35968 20-1356, species assumed) above
Procedure: In some cases, a neutralizing anti-KDR antibody (Catalog #AF357, R&D Systems) was used as a positive control inhibitor of activation. In such cases, the antibody was pre-incubated with the test cells for 30 min at 37° C. prior to the addition of fresh medium containing both VEGF and the antibody. After incubating the dishes 5 min. in a 37° C. tissue culture incubator they were washed three times with ice-cold D-PBS containing calcium and magnesium and placed on ice without removing the last 10 mL of Delbecco's phosphate buffered saline (D-PBS). […] Another 0.5 mL of lysis buffer was used to rinse out the first dish then transferred to the second dish, which was then also scraped and dispersed. The pooled lysate from the two dishes was transferred to a 1.5 mL Eppindorf tube. The above procedure was repeated for each of the controls and test samples (KDR-binding peptides), one at a time. The lysates were stored on ice until all the samples had been processed. At this point samples were either stored at −70° C. or processed to the end of the assay without interruption.
The next day 40 μl of protein A-sepharose beads were added to the tubes that were then incubated 4 C for 1 hr. on a rotator. […] After cooling, the beads in each tube were pelleted by centrifuging and the supernatants containing the immunoprecipitated KDR were transferred to new tubes and used immediately or frozen and stored at −70 C for later analysis.
Detection of phosphorylated KDR as well as total KDR in the immunoprecipitates was carried out by immunoblot analysis.
The blots were first probed with an anti-phosphotyrosine antibody (Transduction Labs, Catalog #P11120), diluted 1:200 in 5% Blotto-TBS with 0.1% Tween 20 added for 2 hr. at room temp. […]
After 5 min of treatment, lysates were prepared from each set of dishes. KDR was immunoprecipitated from the lysates was analyzed sequentially by immunoblotting for phosphorylation with an anti-phosphotyrosine antibody, and for total KDR with an anti-KDR antibody (to control for sample loading).

[4] = system: VEGF-induced migration of HUVECs; assay: VEGF-induced HUVEC migration assay; type: cell-based, human
Procedure: After 22 hours, quantitation of cell migration/invasion was achieved by post-labeling cells in the insert plates with a fluorescent dye and measuring the fluorescence of the invading/migrating cells in a fluorescent plate reader. The VEGF-induced migration was calculated by subtracting the migration that occurred when only basal medium was placed in the lower chamber of the wells.
(§1) Serum-starved HUVECs were placed, 100,000 cells per well, into the upper chambers of BD fibronectin-coated FluoroBlok 24-well insert plates. […] After 22 hours, quantitation of cell migration/invasion was achieved by post-labeling cells in the insert plates with a fluorescent dye and measuring the fluorescence of the invading/migrating cells in a fluorescent plate reader. The VEGF-induced migration was calculated for each experimental condition by subtracting the amount of migration that occurred when only basal medium was added to the lower chamber of the wells.
as §1, with “reader.” for “reader. The”, “observed in” for “that occurred when only basal medium was added to”, “absence” for “lower chamber”, “VEGF.” for “the wells.”
as §1, with “VEGF-stimulated” for “The VEGF-induced”, “derived” for “calculated for each experimental condition”, “basal migration measured in the absence” for “amount”, “VEGF.” for “migration that occurred when only basal medium was added to the lower chamber of the wells.”
Serum-starved HUVECs were placed, 100,000 cells per well, into the upper chambers of BD fibronectin-coated FluoroBlok 24-well insert plates. […] After 22 hours, quantitation of cell migration/invasion was achieved by post-labeling cells in the insert plates with a fluorescent dye and measuring the fluorescence of the invading/migrating cells in a fluorescent plate reader.

murine KDR-Fc = biological target: T2, murine KDR-Fc (Mus musculus, UniProt P35918); assay: BIAcore kinetic analysis of binding to murine KDR-Fc
T2 construct: purchased R & D Systems (Minneapolis, Minn.) 443-KD-050
T2 sequence (P35918 with tags, fused parts or gaps limits assumed): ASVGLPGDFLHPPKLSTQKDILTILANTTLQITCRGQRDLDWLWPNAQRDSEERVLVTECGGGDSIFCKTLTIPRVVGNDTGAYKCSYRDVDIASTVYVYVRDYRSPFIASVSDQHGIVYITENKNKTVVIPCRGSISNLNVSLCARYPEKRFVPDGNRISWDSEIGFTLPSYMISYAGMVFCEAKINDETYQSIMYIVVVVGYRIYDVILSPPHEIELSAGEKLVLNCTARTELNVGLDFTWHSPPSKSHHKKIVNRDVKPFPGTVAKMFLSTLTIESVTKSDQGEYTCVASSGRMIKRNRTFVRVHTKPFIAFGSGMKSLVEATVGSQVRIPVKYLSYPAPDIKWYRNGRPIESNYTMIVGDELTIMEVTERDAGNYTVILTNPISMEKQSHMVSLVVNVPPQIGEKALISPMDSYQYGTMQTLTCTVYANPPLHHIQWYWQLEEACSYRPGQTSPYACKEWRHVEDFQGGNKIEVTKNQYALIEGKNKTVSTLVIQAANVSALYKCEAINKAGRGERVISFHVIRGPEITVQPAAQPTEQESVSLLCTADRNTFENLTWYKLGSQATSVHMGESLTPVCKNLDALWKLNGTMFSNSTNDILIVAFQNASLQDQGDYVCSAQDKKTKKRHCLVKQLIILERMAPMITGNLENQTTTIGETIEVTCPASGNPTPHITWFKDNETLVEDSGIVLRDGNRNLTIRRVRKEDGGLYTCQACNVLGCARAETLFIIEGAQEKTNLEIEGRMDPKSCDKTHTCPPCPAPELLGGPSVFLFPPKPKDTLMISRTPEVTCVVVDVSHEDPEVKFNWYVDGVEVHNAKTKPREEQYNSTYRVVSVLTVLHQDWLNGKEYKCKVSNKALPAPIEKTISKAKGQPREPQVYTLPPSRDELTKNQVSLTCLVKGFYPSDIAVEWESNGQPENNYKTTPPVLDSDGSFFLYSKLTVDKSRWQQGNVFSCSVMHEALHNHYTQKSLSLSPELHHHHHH
Procedure: Three densities of recombinant murine KDR-Fc were cross-linked to the dextran surface of a CM5 sensor chip by the standard amine coupling procedure (0.5 mg/mL solution diluted 1:100 or 1:40 with 50 mM acetate, pH 6.0). Flow cell 1 was activated and then blocked to serve as a reference subtraction.
All samples were injected in duplicate. For association, peptides were injected at 30 μL/min for 3 minutes using the kinject program. Following a 10 minute dissociation, any remaining peptide was stripped from the rmKDR-Fc surface with a quickinject of 50 mM NaOH+1 M NaCl for 12 s at 75 μL/min.
Sensorgrams were analyzed using the simultaneous ka/kd fitting program in the BIAevaluation software 3.1.

PC3 cell tumors = settings: 500 microcuries of Lu-labeled D13 i.v., 18 days
Procedure: PC3 cells from ATCC, grown as recommended by the supplier, were injected subcutaneously between the shoulder blades of nude mice. When their tumors reached 100-400 mm^3, twelve mice were injected i.v. with 500 microcuries of Lu-labeled D13 and their growth monitored for an additional 18 days. Mice were sacrificed if they lost 20% or more of their body weight or their tumors exceeded 2000 mm^3. Tumor growth in the treated mice was compared with the average tumor growth in 37 untreated nude mice implanted with PC3 tumors.

[5] = vs. 2700RU murine KDR-Fc surface
[6] = vs. 5000RU murine KDR-Fc surface

Ac-AGPTWCEDDWYYCWLFGTGGGK (SEQ ID NO:277){[Ac-GDSRVCWEDSWGGEVCFRYDPGGGK (SEQ ID NO:294) (JJ-Glut-NH(CH2)4—(S)—CH(PnAO6-Glut-NH) (C═O—)]—NH2}—NH2 [D10]
Block of VEGF-increased dye leakage into the peritoneum [1]: substantially blocked

Ac-AGPTWCEDDWYYCWLFGTGGGK (SEQ ID NO:277)[(Biotin-JJK-(O═)C(CH2)3C(═O)-JJ-NH(CH2)4—(S)—CH((Ac-VCWEDSWGGEVCFRYDPGGGK (SEQ ID NO:337))-NH)CONH2]—NH2 [D1]
Fold higher affinity for KDR than D2 (by SPR analysis) (KDR [2]): 10 fold | Fold lower IC50 than D2 in the activation assay (KDR [3]): at least 100 fold | Block of VEGF-induced phosphorylation of KDR (KDR [3]; 1 nM): More than half | Block of VEGF-induced phosphorylation of KDR (KDR [3]; 10 nM): completely block | VEGF-stimulated endothelial cell migration blocked ([4]; 5 nM): 84% | VEGF-stimulated endothelial cell migration blocked ([4]; 25 nM): almost completely blocked | Inhibition of VEGF-stimulated migration ([4]; 50 nM): completely blocked | Effect on serum-induced migration ([4]; serum (5% FBS) used in place of VEGF): not significantly diminished | Kd1 (murine KDR-Fc; [5]): 0.0139 s⁻¹ | ka1 (murine KDR-Fc; [5]): 794000 M⁻¹ s⁻¹ | ka2 (1/RUs) (murine KDR-Fc; [5]): 3.31E−04 1/RUs | kd2 (murine KDR-Fc; [5]): 0.000596 s⁻¹ | Kd1 (murine KDR-Fc; [6]): 0.00888 s⁻¹ | ka1 (murine KDR-Fc; [6]): 554000 M⁻¹ s⁻¹ | ka2 (1/RUs) (murine KDR-Fc; [6]): 1.17E−04 1/RUs | kd2 (murine KDR-Fc; [6]): 0.000457 s⁻¹

Ac-AGPTWCEDDWYYCWLFGTGGGK (SEQ ID NO:277){Ac-VCWEDSWGGEVCFRYDPGGGK (SEQ ID NO:337)[JJ-Glut-K(BOA)]—NH2}—NH2 [D13]
Treated mice with significant or complete tumor growth delay (PC3 cell tumors): 6 of the 12
